In the assay the target is T1, beta-site amyloid cleaving enzyme (BACE)1 (Homo sapiens, UniProt P56817).
T1 construct: gene BACE1
Nature of the assay: BACE1 FRET assay kit (Panvera), Swedish-mutant peptide substrate. The format is biochemical.

Structures are written as SMILES.

T1 sequence (P56817 46-457): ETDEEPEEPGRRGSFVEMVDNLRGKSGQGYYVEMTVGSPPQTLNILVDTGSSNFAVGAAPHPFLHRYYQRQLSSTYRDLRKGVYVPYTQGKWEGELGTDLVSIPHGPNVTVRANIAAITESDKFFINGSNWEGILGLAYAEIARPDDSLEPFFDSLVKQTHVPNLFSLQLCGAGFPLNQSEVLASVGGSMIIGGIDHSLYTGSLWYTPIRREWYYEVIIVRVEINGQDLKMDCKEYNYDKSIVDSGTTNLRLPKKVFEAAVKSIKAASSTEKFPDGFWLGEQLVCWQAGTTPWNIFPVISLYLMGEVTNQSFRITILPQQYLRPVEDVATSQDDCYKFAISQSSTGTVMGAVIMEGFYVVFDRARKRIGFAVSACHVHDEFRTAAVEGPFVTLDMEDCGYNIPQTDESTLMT

In general, IC50 refers to the concentration at which inhibition is half-maximal. `COc1ccc(-c2oc3c(CC=C(C)C)c(O)cc(O)c3c(=O)c2O)cc1` [ICT, Icaritin]: the IC50 is 5.7 ± 1.09 µM.

For the origin of these results see article PMC6910110, “Icaritin, an inhibitor of beta-site amyloid cleaving enzyme-1, inhibits secretion of amyloid precursor protein in APP-PS1-HEK293 cells by impeding the amyloidogenic pathway” (PeerJ, 2019).
